In patent US4435566A, “Thiopyranopyrimidine compounds and acid addition salts thereof” (Maruko Seiyaku Co., Ltd., priority 1982, dated 1984):
Entries after “also recorded” stand apart in the source; their conditions may differ. Where two headings read alike, the source gives them in different places.

Experiments:
[1] = system: Alloxan Diabetes Mice; test: Hypoglycemic activity (a): effect on alloxan diabetes mice, blood sugar 2 hours after oral administration; type: in vivo, mice (ddY male); conditions: for % Change in Blood Sugar Level / Blood Sugar Level Mean ± S.E.: 2 hours after administration; for Blood Sugar Level Mean ± S.E.: alloxan 40 mg/kg i.v.
Method: Alloxan was administered intravenously at a dose of 40 mg/kg from a tail vein to ddY male mice weighing 28.2 to 29.5 g. Seven days after administration, the test compound was administered orally to the mice and the blood sugar level was determined before and 2 hours after the administration of the test compound.

[2] = system: Alloxan Diabetes Rats; test: Hypoglycemic activity (b)(1): effect on alloxan diabetes rats, blood sugar 2 hours after oral administration; type: in vivo, rats (Wister male); conditions: for % Change in Blood Sugar Level / Blood Sugar Level Mean ± S.E.: 2 hours after administration; for Blood Sugar Level Mean ± S.E.: alloxan 30 mg/kg i.v.
Method: (1) Alloxan was administered intravenously at a dose of 30 mg/kg from a tail vein to Wister male rats weighing 200 to 218 g. Three days after administration, the test compound was administered orally to the rats and the blood sugar level was determined before and 2 hours after administration of the test compound.

[3] = system: Alloxan Diabetes Rats; test: Hypoglycemic activity (b)(2): effect on alloxan diabetes rats, time course of blood sugar (o-toluidine-boric acid method); type: in vivo, rats (Wister male); design: unit not given here; conditions: 100 mg/kg, oral
Method: (2) Alloxan was administered intravenously at a dose of 18 mg/kg to 9-10W Wister male rats weighing 240 to 280 g. Three days after administration, the test compound was administered orally to the rats (after fasting for 4 hours) and the blood sugar level was determined before and 1, 2 and 3 hours after administration of the test compound with respect to the blood samples drawn from the jugular vein by the o-toluidine-boric acid method.

[4] = system: platelet aggregation; test: Inhibition of platelet aggregation in platelet-rich plasma (aggregometer); type: cell-based, rabbits (male); conditions: for IC50: Oryctolagus cuniculus, Platelet; for Percent Inhibition, Collagen: Collagen (5 × 10^-4 g/ml)
Method: A blood sample drawn from a jugular vein of unanesthetized male rabbits (body weight: 2.2 to 2.6 kg) was mixed with a 3.8% aqueous sodium citrate solution in a proportion of 9:1 (by volume) and the mixture was centrifuged at 1,000 rpm for 10 minutes to obtain a platelet-rich plasma (about 5×10^5 platelets/mm^3, hereinafter "PRP"). To […] of PRP was added […] of an aqueous solution of the test compound and, after 2 hours, to the mixture was added either an adenosine diphosphate (ADP) solution (final concentration: 5×10^-6 M), a sodium arachidonate solution (final concentration: 5×10^-4 M) or collagen. The percent platelet aggregation was determined using an aggregometer and the inhibition of platelet aggregation by the test compound was calculated.

[5] = Acute toxicity (Behrens-Karber method); conditions: mouse, in vivo, mortality one week after administration
Method: The test compound was administered orally (p.o.) or intravenously (i.v.) from a tail vein to ddY male mice weighing 24±2 g. The LD50 values were calculated by the Behrens-Karber method [Arch. exp. Path. Pharmak., 177, 379 (1935)] from the mortality one week after administration.

[6] = system: Alloxan Diabetes Mice; test: Hypoglycemic activity (c): effect on alloxan diabetes mice, ED20; type: in vivo, mice (ddY male); conditions: Mus musculus; oral; 3 hours after administration; alloxan 50 mg/kg i.v.
Method: (§1) Alloxan was administered intravenously at a dose of 50 mg/kg from a tail vein to 5W ddY male mice weighing 23 to 27 g (10 […] per group). Seven days after administration, the test compound was administered orally to the mice and a blood sample was collected from the sacrificed mice after 3 hours. The blood sugar level of the sample was determined by the o-toluidine-boric acid method. The percent inhibition was calculated from the values in test group and the control, and a 20% inhibitory effective dose (ED20) was determined from a dose response curve.

[7] = system: Normal Mice; test: Hypoglycemic activity (d): effect on normal mice, ED20; type: in vivo, mice (ddY male); conditions: Mus musculus; oral; 3 hours after administration
Method: as §1
The test compound was administered orally to 6W ddY male mice and, 3 hours after administration, a blood sample was drawn from the sacrificed mice. The blood sugar level of the sample was determined and ED20 values were calculated in the same manner as described in (c) above.

[8] = biological target: T1, ileum of Hartley male guinea pig (histamine) (Cavia porcellus, UniProt P31389); test: Anti-histamine activity on isolated ileum (Magnus tube, cumulative technique); conditions: for Kb: Tyrode solution, 25±0.5° C., histamine added after 5 minutes, read-out: pA2 Value (converted)
T1 construct: The ileum of Hartley male guinea pig (body weight: 350-400 g) was extracted and suspended in a Magnus tube; from tissue; host or cells: isolated ileum of Hartley male guinea pig
Method: The ileum of Hartley male guinea pig (body weight: 350-400 g) was extracted and suspended in a Magnus tube containing 40 ml of Tyrode solution and the muscle movement was recorded on a soot paper via an isotonic Hebel. The solution in the Magnus tube was maintained at 25±0.5° C. during the test and test compound was previously added to the solution.

[9] = rabbit PRP, ADP final concentration 5×10^-6 M, read-out: IC50, ADP
[10] = rabbit PRP, sodium arachidonate final concentration 5×10^-4 M, read-out: OC50, Arachidonic Acid

T1 sequence (P31389 whole entry): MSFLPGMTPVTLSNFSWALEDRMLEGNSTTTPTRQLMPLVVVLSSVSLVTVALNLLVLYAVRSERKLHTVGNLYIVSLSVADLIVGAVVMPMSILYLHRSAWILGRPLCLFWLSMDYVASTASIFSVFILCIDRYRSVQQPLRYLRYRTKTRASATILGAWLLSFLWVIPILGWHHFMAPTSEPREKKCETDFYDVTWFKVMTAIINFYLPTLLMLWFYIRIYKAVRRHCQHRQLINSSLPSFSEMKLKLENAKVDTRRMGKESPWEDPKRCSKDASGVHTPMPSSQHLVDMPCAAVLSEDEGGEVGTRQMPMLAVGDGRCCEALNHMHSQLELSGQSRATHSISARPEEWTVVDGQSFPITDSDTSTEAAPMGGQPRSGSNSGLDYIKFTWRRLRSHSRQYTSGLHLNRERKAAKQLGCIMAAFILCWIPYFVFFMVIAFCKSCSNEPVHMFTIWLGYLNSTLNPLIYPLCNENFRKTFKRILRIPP

SMILES: C1CSc2c(nc(N3CCNCC3)nc2N2CCOCC2)C1.O=C(O)/C=C\C(=O)O [Compound G, 4-morpholino-2-piperazino-7,8-dihydro-6H-thiopyrano[3,2-d]pyrimidine maleate]
- hypoglycemic activity (in words) ([1]; 200 mg/kg): significant hypoglycemic activity
- % Change in Blood Sugar Level ([1]; 200 mg/kg): -39.5%
- Blood Sugar Level Mean ± S.E. ([1]; 200 mg/kg): 195.2 ± 39.7 mg/dL
- % Change in Blood Sugar Level ([2]; 100 mg/kg): -30.2%
- Blood Sugar Level Mean ± S.E. ([2]; 100 mg/kg): 286.3 ± 76 mg/dL
- hypoglycemic activity (in words) ([2]; 100 mg/kg, maleate): significant hypoglycemic activity; also recorded: strongest activity
- Blood Sugar Level Mean ± S.E., After 1 Hr. ([3]; 1 hour after administration, fasted 4 hours): 141.3 ± 10.4
- Blood Sugar Level Mean ± S.E., After 2 Hrs. ([3]; 2 hours after administration, fasted 4 hours): 130.6 ± 12.6
- Blood Sugar Level Mean ± S.E., After 3 Hrs. ([3]; 3 hours after administration, fasted 4 hours): 130.3 ± 10.3
- Blood Sugar Level Mean ± S.E., Before ([3]; before administration (baseline)): 189.5 ± 9.4
- IC50 [4, 9]: 150 µM
- IC50 [4, 10]: 750 µM
- Percent Inhibition, Collagen ([4]; rabbit PRP): 95%
- LD50 at 168 h ([5]; iv, read-out: LD50, i.v.): 135 mg/kg
- LD50 at 168 h ([5]; po, read-out: LD50, p.o.): 960 mg/kg

SMILES: Nc1nc2c(c(N3CCNCC3)n1)SCCC2.O=C(O)/C=C\C(=O)O.O=C(O)/C=C\C(=O)O [Compound C, 2-amino-4-piperazino-7,8-dihydro-6H-thiopyrano[3,2-d]pyrimidine dimaleate]
- ED20 [6]: 47 mg/kg
- ED20 [7]: 230 mg/kg
- LD50 at 168 h ([5]; po, read-out: LD50, p.o.): 1400 mg/kg

SMILES: C1CSc2c(nc(N3CCNCC3)nc2N2CCCC2)C1.O=C(O)/C=C\C(=O)O [Compound E, 2-piperazino-4-pyrrolidino-7,8-dihydro-6H-thiopyrano[3,2-d]pyrimidine maleate]
- hypoglycemic activity (in words) ([1]; 200 mg/kg): significant hypoglycemic activity
- % Change in Blood Sugar Level ([1]; 200 mg/kg): -36.3%
- Blood Sugar Level Mean ± S.E. ([1]; 200 mg/kg): 205.5 ± 29.3 mg/dL
- anti-histamine activity compared with Diphenhydramine (in words) [8]: substantially equal to that of Diphenhydramine
- Kb [8]: 42.7 nM
- LD50 at 168 h ([5]; iv, read-out: LD50, i.v.): 125 mg/kg
- LD50 at 168 h ([5]; po, read-out: LD50, p.o.): 1170 mg/kg

SMILES: CCCCNC(=O)NS(=O)(=O)c1ccc(C)cc1 [Tolbutamide, 1-Butyl-3-(p-tolylsulfonyl)-urea, reference compound]
- hypoglycemic activity (in words) ([1]; 500 mg/kg): weak hypoglycemic activity
- % Change in Blood Sugar Level ([1]; 500 mg/kg): -13.7%
- Blood Sugar Level Mean ± S.E. ([1]; 500 mg/kg): 278.4 ± 25.7 mg/dL
- hypoglycemic activity (in words) ([2]; 300 mg/kg): significant hypoglycemic activity
- % Change in Blood Sugar Level ([2]; 300 mg/kg): -18.6%
- Blood Sugar Level Mean ± S.E. ([2]; 300 mg/kg): 285.2 ± 2.8 mg/dL

SMILES: CN1CCN(c2nc3c(c(N4CCOCC4)n2)SCCC3)CC1 [Compound H, 2-(N-methylpiperazino)-4-morpholino-7,8-dihydro-6H-thiopyrano[3,2-d]pyrimidine]
- IC50 [4, 9]: 1000 µM
- IC50 [4, 10]: 8.4 µM
- Percent Inhibition, Collagen ([4]; rabbit PRP): 65%
- LD50 at 168 h ([5]; iv, read-out: LD50, i.v.): 200 mg/kg
- LD50 at 168 h ([5]; po, read-out: LD50, p.o.): 1580 mg/kg

SMILES: CN1CCN(c2nc3c(c(N4CCCC4)n2)SCCC3)CC1.O=C(O)/C=C\C(=O)O [Compound F, 2-(N-methylpiperazino)-4-pyrrolidino-7,8-dihydro-6H-thiopyrano[3,2-d]pyrimidine maleate]
- IC50 [4, 10]: 30 µM
- Percent Inhibition, Collagen ([4]; rabbit PRP): 73%
- anti-histamine activity compared with Diphenhydramine (in words) [8]: substantially equal to that of Diphenhydramine
- Kb [8]: 20.4 nM
- LD50 at 168 h ([5]; iv, read-out: LD50, i.v.): 100 mg/kg
- LD50 at 168 h ([5]; po, read-out: LD50, p.o.): 1250 mg/kg

SMILES: CC(=O)Oc1ccccc1C(=O)O [Acetylsalicylic Acid (Aspirin), Acetylsalicylic Acid, reference compound]
- IC50 ([4]; read-out: IC50, ADP): 2000 µM
- IC50 ([4]; read-out: OC50, Arachidonic Acid): 180 µM

SMILES: CN1CCN(c2nc(N)c3c(n2)CCCS3)CC1 [Compound A, 4-amino-2-(N-methylpiperazino)-7,8-dihydro-6H-thiopyrano[3,2-d]pyrimidine]
- ED20 [6]: 60 mg/kg
- ED20 [7]: 127 mg/kg
- LD50 at 168 h ([5]; po, read-out: LD50, p.o.): 1450 mg/kg

SMILES: CNc1nc(N2CCNCC2)nc2c1SCCC2 [Compound B, 4-methylamino-2-piperazino-7,8-dihydro-6H-thiopyrano[3,2-d]pyrimidine]
- ED20 [6]: 53 mg/kg
- ED20 [7]: 37 mg/kg
- LD50 at 168 h ([5]; po, read-out: LD50, p.o.): 580 mg/kg

SMILES: CCCCNC(=N)NC(=N)N [Buformin, 1-Butyl-biguanide, reference compound]
- hypoglycemic activity (in words) ([1]; 150 mg/kg): weak hypoglycemic activity
- % Change in Blood Sugar Level ([1]; 150 mg/kg): -15.3%
- Blood Sugar Level Mean ± S.E. ([1]; 150 mg/kg): 273.3 ± 28.7 mg/dL
- hypoglycemic activity (in words) ([2]; 100 mg/kg): significant hypoglycemic activity
- % Change in Blood Sugar Level ([2]; 100 mg/kg): -22.9%
- Blood Sugar Level Mean ± S.E. ([2]; 100 mg/kg): 275.5 ± 6.0 mg/dL

SMILES: Nc1nc(N2CCNCC2)nc2c1SCCC2 [Compound D, 4-Amino-2-piperazino-7,8-dihydro-6H--thiopyrano[3,2-d]pyrimidine Dimaleate]
- ED20 [6]: 52 mg/kg
- ED20 [7]: 11 mg/kg
- LD50 at 168 h ([5]; po, read-out: LD50, p.o.): 820 mg/kg
